The values below come from patent US20080292736A1, “Bioavailability enhancing activity of carum carvi extracts and fractions thereof” (COUNCIL OF SCIENTIFIC AND INDUSTRIAL RESEARCH, priority 2001, published 2008).

The data set can be described thus: Enhancement of bioavailability of drugs given to rats with bioenhancers (plasma drug level by HPLC). The settings on record: for % Enhancement in bioavailability, BE from Zingiber officinale: drug with Zingiber officinale 50% alcoholic extract of fresh ginger 35 mg/kg; for % Enhancement in bioavailability, BE from Zingiber officinale / % Enhancement in bioavailability, Piperine as BE / % Enhancement in bioavailability, Carum carvi + Zingiber officinale / % Enhancement in bioavailability, Carum carvi + Piperine: drug dose as in row; for % Enhancement in bioavailability, Piperine as BE: drug with piperine 8 mg/kg; for % Enhancement in bioavailability, Carum carvi (Cc) Frac 1.: nutraceutical with Carum carvi Fraction No. 1 15 mg/kg; for % Enhancement in bioavailability, Carum carvi + Zingiber officinale, Frac 1. (Cc): nutraceutical with Carum carvi Fraction No. 1 and Zingiber officinale; for % Enhancement in bioavailability, Carum carvi + piperine, Frac 1. (Cc): nutraceutical with Carum carvi Fraction No. 1 and piperine; for % Enhancement in bioavailability, Carum carvi (Cc) Extr.: nutraceutical with Carum carvi extract 30 mg/kg; for % Enhancement in bioavailability, Carum carvi + Zingiber officinale, Extr. (Cc): nutraceutical with Carum carvi extract and Zingiber officinale; for % Enhancement in bioavailability, Carum carvi + piperine, Extr. (Cc): nutraceutical with Carum carvi extract and piperine; for % Enhancement in bioavailability, BE from Carum carvi: drug with Carum carvi bioenhancer (aqueous or 50% alcoholic extract 30 mg/kg or Fraction No. 1 15 mg/kg), drug dose mg/kg; for % Enhancement in bioavailability, Carum carvi + Zingiber officinale: drug with Carum carvi bioenhancer and Zingiber officinale 35 mg/kg; for % Enhancement in bioavailability, Carum carvi + Piperine: drug with Carum carvi bioenhancer and piperine 8 mg/kg.

Experimental: Bioenhancers of Zingiber officinale, mean 50% alcoholic extract of fresh ginger. The doses remain unchanged whether the bioenhancers are used alone or in combination.
The amount of bioenhancers used are given below: • i. from Carum carvi: extract 30 mg/kg body weight (rats); Fraction No. 1: 15 mg/kg body weight (rats) • ii. piperine 8 mg/kg body weight (rats) • iii. Zingiber officinale: 35 mg/kg body weight (rats) • The drug used was rifampicin (40 mg/kg). The drug alone or in combination with the bioenhancers was administered to rats as given below: • Group 1: control • Group 2: Rifampicin alone • Group 3: bioenhancer alone • Group 4: Rifampicin with Carum carvi bioenhancer
Blood from the control/treated animals at predetermined intervals (0-24 hours) (total 14 timings). Rifampicin was extracted from the blood (plasma) using dichloromethane. […] The mobile phase was phosphate buffer:acetonitrile in a ratio of 40:60, and a flow rate of 1.0 ml/min.

Take `CSCC[C@H](N)C(=O)O` [Methionine]: the “% Enhancement in bioavailability, BE from Zingiber officinale” value (“% Enhancement … from Zingiber officinale” for short) is given as 23%; the “% Enhancement in bioavailability, Piperine as BE” value (shortened to “% Enhancement … as BE”) is listed as 11%; the “% Enhancement in bioavailability, Carum carvi (Cc) Frac 1.” value (“% Enhancement … (Cc) Frac 1.” for short) was 28%; the “% Enhancement in bioavailability, Carum carvi + Zingiber officinale, Frac 1. (Cc)” value turned out to be 37%. In addition, the “% Enhancement in bioavailability, Carum carvi + piperine, Frac 1. (Cc)” value is given as 30%; the “% Enhancement in bioavailability, Carum carvi (Cc) Extr.” value (from here on “% Enhancement … (Cc) Extr.”) worked out at 20%; the “% Enhancement in bioavailability, Carum carvi + Zingiber officinale, Extr. (Cc)” value is listed as 30%; the “% Enhancement in bioavailability, Carum carvi + piperine, Extr. (Cc)” value is listed as 25%.

Turning to `[K+]` [Potassium], the “% Enhancement … from Zingiber officinale” value is on record as “nil”; the “% Enhancement … as BE” value is listed as “nil”; the “% Enhancement … (Cc) Frac 1.” value was “Nil”; the “% Enhancement in bioavailability, Carum carvi + Zingiber officinale, Frac 1. (Cc)” value was “Nil”. For the same compound, the “% Enhancement in bioavailability, Carum carvi + piperine, Frac 1. (Cc)” value is reported as “Nil”; the “% Enhancement … (Cc) Extr.” value is on record as “nil”; the “% Enhancement in bioavailability, Carum carvi + Zingiber officinale, Extr. (Cc)” value is listed as “Nil”; the “% Enhancement in bioavailability, Carum carvi + piperine, Extr. (Cc)” value is given as “nil”.

In the case of `CS(=O)(=O)c1ccc(C2=C(c3ccccc3)C(=O)OC2)cc1` [Rofecoxib], the “% Enhancement in bioavailability, BE from Carum carvi” value (“% Enhancement … from Carum carvi” below) is on record as 75%; the “% Enhancement in bioavailability, Carum carvi + Zingiber officinale” value came out at 80%; the “% Enhancement in bioavailability, Carum carvi + Piperine” value amounted to 70%; the “% Enhancement … from Zingiber officinale” value was “Nil”. Further, the “% Enhancement … as BE” value is given as “nil”.

For `CC1=C(/C=C/C(C)=C/C=C/C(C)=C/C=C/C=C(C)/C=C/C=C(C)/C=C/C2=C(C)CCCC2(C)C)C(C)(C)CCC1` [B-carotene], the “% Enhancement … from Zingiber officinale” value was determined as 35%; the “% Enhancement … as BE” value is recorded as 29%; the “% Enhancement … (Cc) Frac 1.” value came out at 55%; the “% Enhancement in bioavailability, Carum carvi + Zingiber officinale, Frac 1. (Cc)” value worked out at 72%. Further, the “% Enhancement in bioavailability, Carum carvi + piperine, Frac 1. (Cc)” value stood at 59%; the “% Enhancement … (Cc) Extr.” value is 47%; the “% Enhancement in bioavailability, Carum carvi + Zingiber officinale, Extr. (Cc)” value came to 63%; the “% Enhancement in bioavailability, Carum carvi + piperine, Extr. (Cc)” value was determined as 45%.

Take `Cc1nnc2n1-c1ccc(Cl)cc1C(c1ccccc1)=NC2` [Alprazolam]: the “% Enhancement … from Carum carvi” value was “Nil”; the “% Enhancement in bioavailability, Carum carvi + Zingiber officinale” value is reported as 80%; the “% Enhancement in bioavailability, Carum carvi + Piperine” value is listed as 70%; the “% Enhancement … from Zingiber officinale” value came out at 76%. Further, the “% Enhancement … as BE” value is recorded as 65%.

`CO/N=C(\C(=O)N[C@@H]1C(=O)N2C(C(=O)O)=C(CSc3nc(=O)c(O)nn3C)CS[C@H]12)c1csc(N)n1` [Cefetrioxone]: the “% Enhancement … from Carum carvi” value was 72%; the “% Enhancement in bioavailability, Carum carvi + Zingiber officinale” value is on record as 75%; the “% Enhancement in bioavailability, Carum carvi + Piperine” value is 78%; the “% Enhancement … from Zingiber officinale” value was “Nil”. In addition, the “% Enhancement … as BE” value was “Nil”.

On to Vit E, for which the “% Enhancement … from Zingiber officinale” value is on record as “Nil”; the “% Enhancement … as BE” value is on record as “Nil”; the “% Enhancement … (Cc) Frac 1.” value was “Nil”; the “% Enhancement in bioavailability, Carum carvi + Zingiber officinale, Frac 1. (Cc)” value was “Nil”. Besides, the “% Enhancement in bioavailability, Carum carvi + piperine, Frac 1. (Cc)” value is on record as “Nil”; the “% Enhancement … (Cc) Extr.” value was “Nil”; the “% Enhancement in bioavailability, Carum carvi + Zingiber officinale, Extr. (Cc)” value is reported as “Nil”; the “% Enhancement in bioavailability, Carum carvi + piperine, Extr. (Cc)” value is “Nil”.
